The test system of one data set is HCV replicon. Description: microbe, parasite or virus in culture. The data set is classed as cell-based. The following applies: Hepatitis C virus, 48 h, read-out: Replicon IC5Os. For orientation: In antiviral work, replicon cells carry a viral genome segment that copies itself.

In the case of `CCn1c(-c2ccc(NS(=O)(=O)CCCCl)cc2)c(C#N)c2ccc(C(F)(F)F)cc21` [Compound 369], the melting point (usually the temperature, or range, at which the solid turns liquid) was in the range of 174 to 177 °C. The IC50 in the data set on HCV replicon fell in the range of 500 to 2000 nM.

`CCn1c(-c2ccc(S(N)(=O)=O)cc2)c(C#N)c2cc(Cl)ccc21` [Compound 408] came in with a melting point of 231 to 235 °C. For the same molecule, the IC50 in the data set on HCV replicon lay within 500 to 2000 nM.

Regarding `CCOc1ccc2c(C#N)c(-c3ccc(NS(C)(=O)=O)cc3)n(C)c2c1` [Compound 413], the melting point fell in the range of 184 to 185 °C. Also, the IC50 in the data set on HCV replicon is less than 500 nM.

As for `CCOc1ccc2c(C#N)c(-c3ccc(NS(C)(=O)=O)cc3)n(CC)c2c1` [Compound 415], the melting point was 163 to 165 °C. Moreover, the IC50 in the data set with HCV replicon is less than 500 nM.

Take `CCOc1ccc2c(C#N)c(-c3ccc(NS(=O)(=O)CC)cc3)n(CC)c2c1` [Compound 416]: the melting point fell in the range of 173 to 175 °C. Besides, the IC50 with HCV replicon is less than 500 nM.

`CCCn1c(-c2ccc(NS(=O)(=O)CC)cc2)c(C#N)c2ccc(OCC)cc21` [Compound 418] came in with a melting point of 183 to 184 °C. For the same molecule, the IC50 with HCV replicon is less than 500 nM.

In turn, `CCn1c(-c2ccc(NC(C)=O)cc2)c(C#N)c2ccc(C(F)(F)F)cc21` [Compound 420] yielded a melting point of 241 to 243 °C. The IC50 in the data set with HCV replicon fell in the range of 500 to 2000 nM.

As to `CCC(=O)Nc1ccc(-c2c(C#N)c3ccc(C(F)(F)F)cc3n2CC)cc1` [Compound 422], the melting point is 259 to 261 °C. In addition, the IC50 in the data set on HCV replicon fell in the range of 500 to 2000 nM.

On to `CCn1c(-c2ccc(S(=O)(=O)NC)cc2)c(C#N)c2cc(Cl)ccc21` [Compound 430], for which the melting point lay in the range of 180 to 186 °C. Besides, in the data set on HCV replicon, the IC50 was in the range of 500 to 2000 nM.

Take `CCn1c(-c2ccc(N/C(C)=C/C#N)cc2)c(C#N)c2ccc(OC)cc21` [Compound 456]: the melting point lay within 157 to 159 °C. In the data set with HCV replicon, the IC50 is 500 to 2000 nM.

In the case of `CCn1c(-c2ccc(S(N)(=O)=O)cc2)c(C#N)c2cc(-c3cccc(OC)c3)ccc21` [Compound 461], the melting point was in the range of 200 to 205 °C. In the data set with HCV replicon, the IC50 was less than 500 nM.

Consider `CCn1c(-c2ccc(S(=O)(=O)NC)cc2)c(C#N)c2cc(-c3cccc(OC)c3)ccc21` [Compound 462], for which the melting point lay in the range of 135 to 140 °C. Besides, the IC50 in the data set on HCV replicon is less than 500 nM.

The molecule `CCOc1ccc2c(C#N)c(-c3ccc(NS(=O)(=O)CC)cc3)n(CC(C)C)c2c1` [Compound 470] displayed a melting point of 178 to 180 °C. For the same molecule, the IC50 in the data set with HCV replicon is less than 500 nM.

In turn, `CCOc1ccc2c(C#N)c(-c3ccc(NS(C)(=O)=O)cc3)n(CC(C)C)c2c1` [Compound 471] showed a melting point of 154 to 156 °C. Further, the IC50 in the data set with HCV replicon is less than 500 nM.

Regarding `CCOc1ccc2c(C#N)c(-c3ccc(NS(C)(=O)=O)cc3)n(C3CCC3)c2c1` [Compound 472], the melting point was in the range of 215 to 217 °C. The IC50 with HCV replicon is less than 500 nM.

`CCOc1ccc2c(C#N)c(-c3ccc(NS(=O)(=O)CC)cc3)n(C3CCC3)c2c1` [Compound 473] displayed a melting point of 189 to 191 °C. For the same molecule, the IC50 in the data set with HCV replicon is less than 500 nM.

Regarding `CCn1c(-c2ccc(NS(C)(=O)=O)cc2)c(C#N)c2ccc(OCCCl)cc21` [Compound 477], the melting point lay within 194 to 195 °C. In addition, the IC50 in the data set with HCV replicon is less than 500 nM.

In turn, `CCn1c(-c2ccc(NS(C)(=O)=O)cc2)c(C#N)c2ccc(OCCN3CCSCC3)cc21` [Compound 480] showed a melting point of 207 to 208 °C. Moreover, in the data set with HCV replicon, the IC50 was less than 500 nM.

On to `CCCS(=O)(=O)Nc1ccc(-c2c(C#N)c3ccc(OCCCl)cc3n2CC)cc1` [Compound 495], for which the melting point lay in the range of 126 to 128 °C. Moreover, the IC50 with HCV replicon was 500 to 2000 nM.

As for `CCn1c(-c2ccc(NS(C)(=O)=O)cc2)c(C#N)c2ccc(OCCN(C)C)cc21` [Compound 498], the melting point is 192 to 194 °C. In addition, the IC50 with HCV replicon is 500 to 2000 nM.

`CCn1c(-c2ccc(NS(=O)(=O)CC)cc2)cc2ccc(OC(F)F)cc21` [Compound 516, ethanesulfonic acid [4-(6-difluoromethoxy-1-ethyl-1H-iodo-2-yl)-phenyl]-amide] had a melting point of 155 to 156 °C. Also, the IC50 in the data set with HCV replicon fell in the range of 500 to 2000 nM.

For the molecule `Cn1c(-c2ccc(NS(C)(=O)=O)cc2)c(C#N)c2ccc(OC(F)F)cc21` [Compound 518], the melting point is 197 to 199 °C. Also, the IC50 in the data set with HCV replicon fell in the range of 500 to 2000 nM.

In the case of `CCn1c(-c2ccc(NS(=O)(=O)CC)cc2)c(C#N)c2ccc(OC(F)F)cc21` [Compound 520], the melting point is 175 to 177 °C. Further, the IC50 in the data set with HCV replicon is less than 500 nM.

The molecule `CCCn1c(-c2ccc(NS(C)(=O)=O)cc2)c(C#N)c2ccc(OC(F)F)cc21` [Compound 521] returned a melting point of 184 to 186 °C. The IC50 in the data set with HCV replicon was less than 500 nM.

With `CC(C)n1c(-c2ccc(NS(C)(=O)=O)cc2)c(C#N)c2ccc(OC(F)F)cc21` [Compound 523], the melting point was in the range of 190 to 192 °C. Moreover, the IC50 in the data set on HCV replicon was less than 500 nM.

The molecule `CCn1c(-c2cccc(NS(=O)(=O)NC(C)C)c2)c(C#N)c2ccc(OC)cc21` [Compound 542] had a melting point of 186 to 188 °C. Also, the IC50 in the data set on HCV replicon lay within 500 to 2000 nM.

As for `CCn1c(-c2ccc(N)cc2)c(C#N)c2ccc(OCCF)cc21` [Compound 543], the melting point lay in the range of 197 to 200 °C. In addition, the IC50 in the data set with HCV replicon fell in the range of 500 to 2000 nM.

`CCn1c(-c2ccc(NC(=O)C3CC3)cc2)c(C#N)c2ccc(OCCF)cc21` [Compound 544] registered a melting point of 263 to 265 °C. Moreover, the IC50 with HCV replicon was less than 500 nM.

For the molecule `CCn1c(-c2ccc(NC(=O)OC)cc2)c(C#N)c2ccc(OCCF)cc21` [Compound 545], the melting point was in the range of 203 to 205 °C. The IC50 with HCV replicon fell in the range of 500 to 2000 nM.

`CCOC(=O)Nc1ccc(-c2c(C#N)c3ccc(OCCF)cc3n2CC)cc1` [Compound 546] showed a melting point of 208 to 210 °C. In the data set with HCV replicon, the IC50 was less than 500 nM.

For the molecule `CCn1c(-c2ccc(NS(C)(=O)=O)cc2)c(C#N)c2ccc(OCCF)cc21` [Compound 548], the melting point lay in the range of 171 to 174 °C. Further, the IC50 with HCV replicon is 500 to 2000 nM.

In turn, `CCn1c(-c2ccc(NS(=O)(=O)CC)cc2)c(C#N)c2ccc(OCCF)cc21` [Compound 549] registered a melting point of 150 to 153 °C. In the data set with HCV replicon, the IC50 is less than 500 nM.

As for `CCCS(=O)(=O)Nc1ccc(-c2c(C#N)c3ccc(OCCF)cc3n2CC)cc1` [Compound 550], the melting point fell in the range of 183 to 185 °C. In the data set on HCV replicon, the IC50 was 500 to 2000 nM.

The molecule `CCn1c(-c2ccc(NS(=O)(=O)CCCCl)cc2)c(C#N)c2ccc(OCCF)cc21` [Compound 551] showed a melting point of 187 to 190 °C. For the same molecule, in the data set on HCV replicon, the IC50 lay within 500 to 2000 nM.

The molecule `CCn1c(-c2ccc(NS(=O)(=O)C3CC3)cc2)c(C#N)c2ccc(OCCF)cc21` [Compound 552] gave a melting point of 185 to 188 °C. For the same molecule, in the data set with HCV replicon, the IC50 is less than 500 nM.

`CCCS(=O)(=O)Nc1cccc(-c2c(C#N)c3ccc(C(F)(F)F)cc3n2CC)c1` [Compound 563] showed a melting point of 210 to 212 °C. Further, the IC50 in the data set on HCV replicon was in the range of 500 to 2000 nM.

Take `CCn1c(-c2ccc(NC(=O)C3CCC3)cc2)c(C#N)c2ccccc21` [Compound 567]: the melting point lay within 238.2 to 238.6 °C. The IC50 in the data set on HCV replicon is 500 to 2000 nM.

`CCn1c(-c2ccc(C(=O)NC(C)C)cc2)c(C#N)c2cc(OC)ccc21` [Compound 570] displayed a melting point of 220 to 222 °C. For the same molecule, the IC50 in the data set with HCV replicon is 500 to 2000 nM.

`CCS(=O)(=O)Nc1ccc(-c2c(C#N)c3cc(OC)ccc3n2C)cc1` [Compound 580] returned a melting point of 198 to 200 °C. Besides, the IC50 with HCV replicon was less than 500 nM.

Molecule `CCCS(=O)(=O)Nc1ccc(-c2c(C#N)c3cc(Cl)ccc3n2CC)cc1` [Compound 601] displayed a melting point of 195 to 200 °C. For the same molecule, the IC50 with HCV replicon was less than 500 nM.

As to `CCn1c(-c2ccc(NS(=O)(=O)C3CC3)cc2)c(C#N)c2cc(Cl)ccc21` [Compound 602], the melting point lay within 179 to 184 °C. In addition, the IC50 with HCV replicon is less than 500 nM.

`CCCOC(=O)Nc1cccc(-c2c(C#N)c3cc(N4CCOCC4)ccc3n2CC)c1` [Compound 606]: the melting point lay in the range of 166 to 170 °C. The IC50 in the data set on HCV replicon was less than 500 nM.

Molecule `CCn1c(-c2cccc(NC(=O)OCCOC)c2)c(C#N)c2cc(N3CCOCC3)ccc21` [Compound 607] returned a melting point of 189 to 194 °C. Also, in the data set with HCV replicon, the IC50 is less than 500 nM.

With `COc1ccc2c(C#N)c(-c3ccc(NS(C)(=O)=O)cc3)n(CC3CC3)c2c1` [Compound 611], the melting point was in the range of 126 to 128 °C. Besides, the IC50 in the data set on HCV replicon was 500 to 2000 nM.

Turning to `CCS(=O)(=O)Nc1ccc(-c2c(C#N)c3ccc(OC)cc3n2CC2CC2)cc1` [Compound 612], the melting point lay in the range of 198 to 200 °C. For the same molecule, in the data set with HCV replicon, the IC50 is 500 to 2000 nM.

On to `CS(=O)(=O)Nc1ccc(-c2c(C#N)c3ccc(OC(F)F)cc3n2CC2CC2)cc1` [Compound 613], for which the melting point was in the range of 198 to 200 °C. Also, the IC50 with HCV replicon was less than 500 nM.

In turn, `CCS(=O)(=O)Nc1ccc(-c2c(C#N)c3ccc(OC(F)F)cc3n2CC2CC2)cc1` [Compound 614] displayed a melting point of 176 to 177 °C. Moreover, in the data set with HCV replicon, the IC50 was less than 500 nM.

`CCCCS(=O)(=O)Nc1ccc(-c2c(C#N)c3cc(Cl)ccc3n2CC)cc1` [Compound 616] showed a melting point of 143 to 149 °C. The IC50 in the data set with HCV replicon was less than 500 nM.

In turn, `CCn1c(-c2ccc(NS(=O)(=O)CCCCl)cc2)c(C#N)c2cc(Cl)ccc21` [Compound 617] displayed a melting point of 164 to 167 °C. Moreover, in the data set with HCV replicon, the IC50 is less than 500 nM.

As for `CCOC(=O)Nc1ccc(-c2c(C#N)c3cc(Cl)ccc3n2CC)cc1` [Compound 618], the melting point fell in the range of 205 to 211 °C. The IC50 in the data set with HCV replicon is less than 500 nM.

As to `CCCOC(=O)Nc1ccc(-c2c(C#N)c3cc(Cl)ccc3n2CC)cc1` [Compound 619], the melting point was 201 to 206 °C. Further, the IC50 in the data set on HCV replicon was 500 to 2000 nM.

Regarding `CCCn1c(-c2ccc(NS(=O)(=O)CCC)cc2)c(C#N)c2ccc(OC)cc21` [Compound 621], the melting point lay in the range of 187 to 188 °C. Further, the IC50 in the data set on HCV replicon lay within 500 to 2000 nM.

`CCCn1c(-c2ccc(NS(=O)(=O)C(C)C)cc2)c(C#N)c2ccc(OC)cc21` [Compound 622] came in with a melting point of 182 to 183 °C. Also, the IC50 in the data set on HCV replicon lay in the range of 500 to 2000 nM.

For the origin of these results see patent US8013006B2.
